Drawing on ChEMBL document CHEMBL1143439, “Open-chain half-bastadins mimic the effects of cyclic bastadins on calcium homeostasis in cultured neurons” (Bioorg Med Chem Lett, 2008), this text covers Activity, IC50 and EC50 for five compounds.

Active and inactive are the calls of the source. No cut-off for these calls is given here.

The species named for experiment [1] is Rattus norvegicus. Briefly: Activity at RYR2 receptor in rat cerebellar granule neurons assessed as increase in intracellular calcium level at 20 uM. The class given is cell-based. (In general: Calcium assays in cells follow changes in intracellular calcium, usually with a dye or a luminescent sensor.)
Experiment [2] is filed under the species Rattus norvegicus. Description: Activity at RYR2 receptor in rat cerebellar granule neurons assessed activation of [45Ca2+] uptake at 20 uM after 10 mins.
Another experiment has as its target Ryanodine receptor 1 (Homo sapiens, UniProt P21817). Briefly: Binding affinity to RYR1 channels by calcium mobilization assay.

Ryanodine receptor 1, sequence (P21817 whole entry): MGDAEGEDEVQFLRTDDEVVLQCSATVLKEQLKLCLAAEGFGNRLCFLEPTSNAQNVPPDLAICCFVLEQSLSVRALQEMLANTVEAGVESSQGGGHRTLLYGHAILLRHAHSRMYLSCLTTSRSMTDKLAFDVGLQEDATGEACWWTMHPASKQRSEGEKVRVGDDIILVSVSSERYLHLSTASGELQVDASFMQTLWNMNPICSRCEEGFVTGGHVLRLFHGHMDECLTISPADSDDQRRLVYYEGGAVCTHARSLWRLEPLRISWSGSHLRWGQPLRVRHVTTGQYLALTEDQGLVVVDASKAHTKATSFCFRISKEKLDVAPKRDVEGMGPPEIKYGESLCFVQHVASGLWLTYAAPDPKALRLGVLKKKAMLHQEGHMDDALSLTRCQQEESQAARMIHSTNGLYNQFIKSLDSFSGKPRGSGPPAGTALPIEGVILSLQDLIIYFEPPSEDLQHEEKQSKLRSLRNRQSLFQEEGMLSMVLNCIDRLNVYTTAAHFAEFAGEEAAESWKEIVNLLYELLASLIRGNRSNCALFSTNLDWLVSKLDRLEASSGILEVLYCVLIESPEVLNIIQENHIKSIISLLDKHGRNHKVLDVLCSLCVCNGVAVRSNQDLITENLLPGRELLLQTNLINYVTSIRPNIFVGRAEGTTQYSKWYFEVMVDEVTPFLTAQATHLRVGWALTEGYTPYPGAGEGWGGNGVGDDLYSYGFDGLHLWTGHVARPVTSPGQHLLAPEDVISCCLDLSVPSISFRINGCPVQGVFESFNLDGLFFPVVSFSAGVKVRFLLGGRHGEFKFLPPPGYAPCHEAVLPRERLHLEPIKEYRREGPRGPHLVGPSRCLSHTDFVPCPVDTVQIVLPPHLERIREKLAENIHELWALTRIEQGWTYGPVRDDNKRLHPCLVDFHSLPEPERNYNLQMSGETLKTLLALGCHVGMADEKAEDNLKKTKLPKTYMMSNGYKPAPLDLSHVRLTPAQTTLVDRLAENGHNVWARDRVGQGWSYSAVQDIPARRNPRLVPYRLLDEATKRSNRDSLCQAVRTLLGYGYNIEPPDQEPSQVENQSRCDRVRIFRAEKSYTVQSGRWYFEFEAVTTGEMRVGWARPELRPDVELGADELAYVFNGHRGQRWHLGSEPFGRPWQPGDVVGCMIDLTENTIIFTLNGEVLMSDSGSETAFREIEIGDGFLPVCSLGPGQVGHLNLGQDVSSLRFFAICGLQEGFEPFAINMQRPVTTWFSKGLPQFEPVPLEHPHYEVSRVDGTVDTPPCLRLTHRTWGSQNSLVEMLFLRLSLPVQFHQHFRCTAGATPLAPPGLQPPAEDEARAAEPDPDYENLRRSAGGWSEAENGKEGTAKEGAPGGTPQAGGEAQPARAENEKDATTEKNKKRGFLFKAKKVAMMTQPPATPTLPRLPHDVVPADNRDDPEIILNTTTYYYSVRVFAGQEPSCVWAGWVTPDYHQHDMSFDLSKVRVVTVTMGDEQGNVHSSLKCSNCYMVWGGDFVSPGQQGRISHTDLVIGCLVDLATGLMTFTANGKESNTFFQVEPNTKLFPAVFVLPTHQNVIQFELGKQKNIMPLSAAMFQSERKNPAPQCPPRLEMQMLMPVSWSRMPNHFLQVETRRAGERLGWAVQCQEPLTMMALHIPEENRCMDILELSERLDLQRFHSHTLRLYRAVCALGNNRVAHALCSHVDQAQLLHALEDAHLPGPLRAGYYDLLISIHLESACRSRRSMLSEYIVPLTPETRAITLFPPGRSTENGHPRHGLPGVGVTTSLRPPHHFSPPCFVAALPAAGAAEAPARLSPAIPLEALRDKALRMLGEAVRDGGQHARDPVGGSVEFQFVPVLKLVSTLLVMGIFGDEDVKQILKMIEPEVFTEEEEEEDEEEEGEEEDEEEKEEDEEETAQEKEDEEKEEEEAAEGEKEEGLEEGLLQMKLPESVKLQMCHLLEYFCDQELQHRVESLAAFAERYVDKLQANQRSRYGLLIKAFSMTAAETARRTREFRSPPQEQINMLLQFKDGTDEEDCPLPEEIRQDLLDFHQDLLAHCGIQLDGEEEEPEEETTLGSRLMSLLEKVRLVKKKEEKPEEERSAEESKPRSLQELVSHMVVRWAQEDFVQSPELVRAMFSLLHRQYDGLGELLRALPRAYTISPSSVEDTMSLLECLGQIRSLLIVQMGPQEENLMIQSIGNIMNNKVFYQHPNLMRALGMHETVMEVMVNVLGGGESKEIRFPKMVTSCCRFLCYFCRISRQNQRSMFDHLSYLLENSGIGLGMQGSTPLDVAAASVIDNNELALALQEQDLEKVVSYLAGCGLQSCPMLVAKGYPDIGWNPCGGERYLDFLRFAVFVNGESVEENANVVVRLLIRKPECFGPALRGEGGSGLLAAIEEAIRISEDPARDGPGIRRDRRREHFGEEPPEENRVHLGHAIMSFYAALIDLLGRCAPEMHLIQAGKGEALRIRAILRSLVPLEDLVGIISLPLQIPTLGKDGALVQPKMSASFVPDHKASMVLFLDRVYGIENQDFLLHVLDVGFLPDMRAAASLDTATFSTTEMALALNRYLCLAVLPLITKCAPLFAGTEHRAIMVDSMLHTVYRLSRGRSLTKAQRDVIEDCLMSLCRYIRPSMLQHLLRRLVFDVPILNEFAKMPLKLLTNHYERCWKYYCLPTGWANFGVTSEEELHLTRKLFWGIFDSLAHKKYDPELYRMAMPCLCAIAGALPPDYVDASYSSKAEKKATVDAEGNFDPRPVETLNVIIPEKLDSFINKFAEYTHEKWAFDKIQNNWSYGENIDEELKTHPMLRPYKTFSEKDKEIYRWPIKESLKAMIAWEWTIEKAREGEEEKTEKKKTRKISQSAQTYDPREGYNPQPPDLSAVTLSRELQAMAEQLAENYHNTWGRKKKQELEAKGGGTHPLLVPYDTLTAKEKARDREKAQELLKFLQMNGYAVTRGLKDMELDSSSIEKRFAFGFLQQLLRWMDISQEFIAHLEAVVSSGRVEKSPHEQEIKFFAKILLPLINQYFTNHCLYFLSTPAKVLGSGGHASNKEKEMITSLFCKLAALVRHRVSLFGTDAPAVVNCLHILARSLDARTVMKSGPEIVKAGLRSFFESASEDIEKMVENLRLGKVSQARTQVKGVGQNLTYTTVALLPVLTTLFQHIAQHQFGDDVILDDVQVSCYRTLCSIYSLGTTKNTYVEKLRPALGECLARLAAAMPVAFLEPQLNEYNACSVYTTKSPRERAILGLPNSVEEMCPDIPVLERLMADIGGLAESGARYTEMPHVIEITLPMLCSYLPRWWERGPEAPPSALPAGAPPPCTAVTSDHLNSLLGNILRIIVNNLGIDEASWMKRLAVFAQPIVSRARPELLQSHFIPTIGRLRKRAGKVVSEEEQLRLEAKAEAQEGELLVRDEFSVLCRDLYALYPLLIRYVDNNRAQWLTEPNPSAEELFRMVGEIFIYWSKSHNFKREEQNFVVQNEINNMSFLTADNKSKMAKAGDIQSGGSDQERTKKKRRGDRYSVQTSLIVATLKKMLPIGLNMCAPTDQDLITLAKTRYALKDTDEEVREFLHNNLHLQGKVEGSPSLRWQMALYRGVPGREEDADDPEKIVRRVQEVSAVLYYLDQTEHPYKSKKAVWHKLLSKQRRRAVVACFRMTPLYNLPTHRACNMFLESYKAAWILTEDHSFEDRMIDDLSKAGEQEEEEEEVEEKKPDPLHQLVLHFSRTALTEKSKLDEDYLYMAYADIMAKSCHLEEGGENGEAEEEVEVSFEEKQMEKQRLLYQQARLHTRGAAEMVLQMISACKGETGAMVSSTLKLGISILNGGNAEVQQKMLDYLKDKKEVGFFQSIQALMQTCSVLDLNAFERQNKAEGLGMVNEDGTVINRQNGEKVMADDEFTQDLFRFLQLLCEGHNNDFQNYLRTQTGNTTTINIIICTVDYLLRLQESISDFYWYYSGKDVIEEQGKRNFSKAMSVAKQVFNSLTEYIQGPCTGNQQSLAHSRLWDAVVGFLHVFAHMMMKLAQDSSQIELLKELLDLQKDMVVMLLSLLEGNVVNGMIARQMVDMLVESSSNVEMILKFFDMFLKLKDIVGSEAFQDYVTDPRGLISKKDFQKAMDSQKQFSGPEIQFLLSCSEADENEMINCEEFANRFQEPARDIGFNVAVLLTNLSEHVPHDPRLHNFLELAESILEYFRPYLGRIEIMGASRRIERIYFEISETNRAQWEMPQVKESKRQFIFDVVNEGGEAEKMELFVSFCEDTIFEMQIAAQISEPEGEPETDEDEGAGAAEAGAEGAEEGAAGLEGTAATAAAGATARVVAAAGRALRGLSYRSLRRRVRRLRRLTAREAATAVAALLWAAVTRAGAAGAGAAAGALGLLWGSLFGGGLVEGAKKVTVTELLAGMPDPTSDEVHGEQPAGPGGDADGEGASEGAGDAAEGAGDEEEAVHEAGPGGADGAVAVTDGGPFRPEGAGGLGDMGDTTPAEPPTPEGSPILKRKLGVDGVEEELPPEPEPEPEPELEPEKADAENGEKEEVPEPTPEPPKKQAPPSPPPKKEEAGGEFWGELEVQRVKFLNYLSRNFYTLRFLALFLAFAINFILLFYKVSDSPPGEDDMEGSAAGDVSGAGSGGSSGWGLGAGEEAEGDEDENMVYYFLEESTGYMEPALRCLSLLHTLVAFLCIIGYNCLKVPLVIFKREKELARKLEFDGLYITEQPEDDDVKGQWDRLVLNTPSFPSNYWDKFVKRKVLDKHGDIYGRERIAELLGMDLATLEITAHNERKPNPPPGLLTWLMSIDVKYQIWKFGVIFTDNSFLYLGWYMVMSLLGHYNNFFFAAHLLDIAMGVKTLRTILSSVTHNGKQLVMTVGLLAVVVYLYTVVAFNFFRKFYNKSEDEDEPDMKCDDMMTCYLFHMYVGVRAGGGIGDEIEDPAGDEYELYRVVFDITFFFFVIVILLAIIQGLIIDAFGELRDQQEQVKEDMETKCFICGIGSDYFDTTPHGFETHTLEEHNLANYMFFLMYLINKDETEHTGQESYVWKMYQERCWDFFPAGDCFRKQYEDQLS

As to `O=C1NCCc2cc(Br)c(O)c(c2)Oc2ccc(cc2Br)CCNC(=O)/C(=N\O)Cc2cc(Br)c(O)c(c2)Oc2c(Br)cc(cc2Br)C/C1=N/O`, the outcome in the experiment listed under Rattus norvegicus [1] and in the experiment listed under Rattus norvegicus [2] was Active.
Turning to `O=C(NCCc1cc(Br)c(Oc2cc(NC(=O)c3ccccc3)ccc2O)c(Br)c1)c1ccccc1`, the result in the experiment filed under Rattus norvegicus [1] was inactive.
As for `O=C1CCNC(=O)CCc2ccc(c(Br)c2)Oc2cc(cc(Br)c2O)CCN1`, on Ryanodine receptor 1, the IC50 turned out to be 6 µM.
For the compound `O=C1CCc2ccc(c(Br)c2)Oc2cc(cc(Br)c2O)CCN1`, on Ryanodine receptor 1, the half-maximal effective concentration (EC50) was determined as 11 µM.
As to `CCCCNC(=O)/C(Cc1cc(Br)c(Oc2cc(C/C(=N\O)C(=O)NCCCC)cc(Br)c2O)c(Br)c1)=N/O`, the outcome in the experiment filed under Rattus norvegicus [1] and in the experiment filed under Rattus norvegicus [2] was Active.

By IC50 is commonly meant the concentration that inhibits the measured activity by half. A word on the EC50: it is the concentration giving half of the maximal effect.
